{"source": "patent US5827655A", "about": "(priority 1995, dated 1998)", "key": {"[1]": {"test_system": "type n K+ channel (human)", "details": "Table I, type n currents, human T cells; read-out: Blockers, half-blocking dose; cited from earlier work"}, "[2]": {"test_system": "type n K+ channel (mice)", "details": "Table I, type n currents, mouse T cells; read-out: Blockers, half-blocking dose; cited from earlier work"}, "[3]": {"biological_target": "T1, MK3 K+ channels (Mus musculus, UniProt P16390)", "T1 construct": "The MK3 coding region was inserted into the pSP64T cloning vector; expressed in transfected cells; host or cells: Xenopus oocytes injected with MK3 mRNA (in vitro transcript from pSP64T)", "T1 sequence (P16390 whole entry)": "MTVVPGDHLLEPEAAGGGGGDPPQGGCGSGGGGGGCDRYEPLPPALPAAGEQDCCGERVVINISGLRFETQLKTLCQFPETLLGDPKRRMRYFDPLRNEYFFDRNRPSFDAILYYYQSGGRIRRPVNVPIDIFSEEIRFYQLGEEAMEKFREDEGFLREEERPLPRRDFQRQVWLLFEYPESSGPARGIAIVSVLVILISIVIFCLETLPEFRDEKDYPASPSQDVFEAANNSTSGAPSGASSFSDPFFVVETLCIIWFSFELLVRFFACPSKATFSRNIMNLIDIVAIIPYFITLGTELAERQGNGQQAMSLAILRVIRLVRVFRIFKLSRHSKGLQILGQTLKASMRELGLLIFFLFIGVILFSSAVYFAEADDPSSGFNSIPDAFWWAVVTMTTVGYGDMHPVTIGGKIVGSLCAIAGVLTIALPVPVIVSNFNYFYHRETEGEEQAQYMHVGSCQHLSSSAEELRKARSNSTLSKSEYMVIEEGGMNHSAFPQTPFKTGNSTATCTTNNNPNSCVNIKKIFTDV", "assay": "cell-based"}}}
{"molecule": "Nc1ccncc1", "note": "[4-AP, 4-aminopyridine]", "values": [{"measurement": "IC50", "setting": "[1]", "value": 0.19, "unit": "mM"}, {"measurement": "IC50", "setting": "[2]", "value": "[…]"}]}
{"molecule": "Charybdotoxin [CTX]", "values": [{"measurement": "Block of MK3 channels in oocytes (in words)", "setting": "[3]; CTX from both sources (C. Miller and M. Garcia)", "value": "blocked MK3 channels in oocytes"}]}
{"molecule": "CC[N+](CC)(CC)CC", "note": "[TEA, tetraethylammonium]", "values": [{"measurement": "Kd", "setting": "[3]; FIG. 3C, outside-out patch, oocyte injected with MK3 mRNA, read-out: Kd, dose-response curve of drugs blocking MK3 K+ current", "value": 11, "unit": "mM"}, {"measurement": "IC50", "setting": "[3]; Table I, MK3 currents in oocytes, read-out: Blockers, half-blocking dose", "value": 11, "unit": "mM"}]}
